Results from BindingDB's records for patent US20250368640 (Biofront, 2025).

Columns and labels:
Aurora kinase A = molecular target: T1, Aurora kinase A (Homo sapiens, UniProt O14965); test: Aurora A Enzyme Inhibition Assay
T1 sequence (O14965 whole entry): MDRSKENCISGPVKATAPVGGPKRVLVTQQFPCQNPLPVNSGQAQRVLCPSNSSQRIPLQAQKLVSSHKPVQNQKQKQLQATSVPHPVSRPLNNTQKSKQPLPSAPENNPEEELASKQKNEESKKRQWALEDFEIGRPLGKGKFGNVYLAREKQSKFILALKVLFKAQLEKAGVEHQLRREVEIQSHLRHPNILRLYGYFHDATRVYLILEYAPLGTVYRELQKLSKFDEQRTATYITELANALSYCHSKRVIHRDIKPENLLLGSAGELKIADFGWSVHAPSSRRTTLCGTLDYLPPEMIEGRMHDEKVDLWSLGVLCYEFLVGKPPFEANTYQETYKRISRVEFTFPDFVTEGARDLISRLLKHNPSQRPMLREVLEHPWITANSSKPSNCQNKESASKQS
Protocol: The compound was dissolved in 100% DMSO at the concentration of 10 mM. The Aurora A protein was purchased from Carna (05-101). 10 μL per well of 2.5×Aurora A protein was added to assay plate containing the test compound, centrifuged at 1000 rpm for 1 minute, and then incubated at 25° C. for 10 minutes. Peptide 21 was purchased from GL Biochem (116370) and ATP was purchased from Promega (V9102). The two were added 15 μL per well mixture of 1.67× peptide 21 (final conc. is 3 μM) and ATP (final conc. is 14.58 μM), centrifuged at 1000 rpm for 1 minute, then incubated at 25° C. for 40 minutes. Then added 30 μL of stop buffer (100 mM HEPES pH7.5, 0.015% Brij-35, 0.2% Coating Reagent 3, 50 mM EDTA) to the assay plate and centrifuged at 1000 rpm for 1 minute. the product was determined.

[1] = molecular target: Mitogen-activated protein kinase kinase kinase kinase 1 (Homo sapiens, UniProt Q92918); test: HPK1 Enzyme Inhibition Assay
Sequence of Mitogen-activated protein kinase kinase kinase kinase 1 (Q92918 whole entry): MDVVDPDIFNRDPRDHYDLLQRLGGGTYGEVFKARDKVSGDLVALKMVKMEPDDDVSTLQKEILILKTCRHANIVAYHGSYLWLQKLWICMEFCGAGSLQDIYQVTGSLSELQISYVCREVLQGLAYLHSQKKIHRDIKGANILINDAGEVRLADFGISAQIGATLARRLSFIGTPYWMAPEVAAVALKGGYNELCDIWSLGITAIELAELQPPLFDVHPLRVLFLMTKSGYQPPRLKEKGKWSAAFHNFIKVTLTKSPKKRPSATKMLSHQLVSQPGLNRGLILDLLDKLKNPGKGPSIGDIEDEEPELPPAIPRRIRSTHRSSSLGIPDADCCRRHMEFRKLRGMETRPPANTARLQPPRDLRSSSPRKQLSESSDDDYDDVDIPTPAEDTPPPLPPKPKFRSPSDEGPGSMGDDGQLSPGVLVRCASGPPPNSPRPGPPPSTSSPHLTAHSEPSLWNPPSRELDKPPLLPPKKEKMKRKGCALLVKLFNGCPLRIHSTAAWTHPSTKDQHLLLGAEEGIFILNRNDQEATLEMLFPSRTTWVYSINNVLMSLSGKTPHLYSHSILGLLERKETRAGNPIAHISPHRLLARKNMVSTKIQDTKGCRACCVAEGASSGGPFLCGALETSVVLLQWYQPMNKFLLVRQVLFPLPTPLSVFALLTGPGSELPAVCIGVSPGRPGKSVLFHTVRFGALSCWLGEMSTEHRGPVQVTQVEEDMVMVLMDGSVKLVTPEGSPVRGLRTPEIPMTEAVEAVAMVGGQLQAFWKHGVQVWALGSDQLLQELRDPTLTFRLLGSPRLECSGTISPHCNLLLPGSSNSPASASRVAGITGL
Protocol: The compound was dissolved in 100% DMSO at the concentration of 10 mM. The HPK1 protein was purchased from Signal Chem (M23-11G-10). 2.5 μL per well of 2×HPK1 protein was added to assay plate containing the test compound, centrifuged at 1500 rpm for 1 minute, and then incubated at 25° C. for 60 minutes. MBP protein was purchased from Signal Chem (M42-51N) and ATP was purchased from Promega (V9102). The two were added 2.5 μL per well mixture of 2×MBP (0.2 ug/ul) and ATP (20 μM), centrifuged at 1500 rpm for 1 minute, then incubated at 25° C. for 60 minutes. Then added 5 μL of ADP-Glo from Promega (V9102) to the assay plate and depleted the unconsumed ATP for 60 minutes. Then centrifuged at 1500 rpm for 1 minute and incubated at 25° C. for 60 minutes. Finally, 10 μL of the kinase assay reagent from Promega (V9102) was added to the assay plate to convert ADP to ATP, centrifuged at 1500 rpm for 1 minute, incubate at 25° C. for 40 minutes. After 40 minutes incubation, the […] was determined.

`CCc1c[nH]c2ncc(-c3cccc(N4CCCN(CCN5CC(c6ccc7c(c6)CN(C6CCC(=O)NC6=O)C7=O)C5)C4=O)c3)c(Cl)c12` (centres undefined) was tested, and the IC50 (Aurora kinase A) was 10.1 nM and the IC50 [1] was 1.1 nM.
Work on `CCc1c[nH]c2ncc(-c3cccc(N4CCCN(CCN5CC(c6ccc7c(c6)C(=O)N(C6CCC(=O)NC6=O)C7)C5)C4=O)c3)c(Cl)c12` (centres undefined) [US20250368640, Example 1] yielded an IC50 (Aurora kinase A) of 14.3 nM and an IC50 [1] of 0.76 nM.
